Laboratory results taken from patent US9334272B2, “Derivatives of purinic and pyrimidinic antiviral agents and use thereof as potent anticancer agents” (Ramot at Tel-Aviv University Ltd., priority 2007, dated 2016).

Key:
[1] = Acute toxicity assay in mice; type: in vivo; settings: male, mouse, in vivo; single per os dose, ICR mice
Excerpt: (§1) Male ICR mice, 8 weeks old (Harlan, Israel) were acclimated for 10 days before administration of the tested compounds. The animals were monitored for two weeks and weighed three times per week.

[2] = system: ICR mice; assay: Acute toxicity assay in mice; type: in vivo; settings: 2 weeks
Excerpt: as §1

[3] = system: 3LLD122 Lewis lung carcinoma; assay: Metastatic Lewis lung carcinoma (3LL) model; type: in vivo, mice; settings: Compound 6 30 mg/kg, Compound 7 25 mg/kg, per os thrice per week, 21 days; p<0.02 vs acyclovir
Description: Female C57/BL mice, 7-10 weeks old, were acclimated for ten days. All in vivo experiments were conducted according to the NIH Laboratory Animal Care Guidelines and in accordance with the guidelines and approval of the Tel Aviv University Committee for Animal Experimentation.
The subclone 3LLD122 of 3LL used in the study was selected for its aggressive and invasive nature. […] The animals were sacrificed after 21 days of treatment, their lungs were weighed, stained with Bouin's fixative and the metastatic lesions were scored double-blindly.

[4] = system: 4T1 murine breast carcinoma; assay: Metastatic 4T1 breast carcinoma model; type: in vivo, mice; settings: 4T1 model; for anti-cancer activity (number of metastases and lung weight): 40 or 80 mg/kg, FIG. 18
Description: The syngeneic murine breast carcinoma metastatic model was performed with 8-10 weeks old BALB-c mice implanted with 4T1 cells. When the tumor volume reached 75-180 mm^3 (after ˜10 days), treatment was initiated for an additional 21 days. At termination, the animals were sacrificed and their lungs removed, stained with Bouin's solution, and lung lesions were scored under an illuminated magnifying glass.

[5] = system: acetylated histone H4; assay: In vivo histone H4 acetylation in 4T1 tumors (Western blot); parameters: species or system mice; settings: 100 mg/kg each, 4 hours after treatment, vs vehicle
Description: For the determination of in vitro histone acetylation, 2.5-3×10^6 cells, seeded in 100 mm culture dishes, were supplemented with RPMI medium containing 10% heat inactivated FCS and were treated with the drugs the following day. At the specified times post-treatment, the cells were removed with a rubber policeman, centrifuged, washed, lysed with lysis buffer (PBS, Nonidet® NP-40 1%, sodium deoxycholate 0.5%, sodium dodecyl sulfate (SDS) 0.1%, 1 mM phenylmethylsulfonyl fluoride (PMSF), 1 mM sodium orthovanadate, and 1 μM each of leupeptin and pepstatin) and centrifuged at 10,000 g for 10 minutes at 4° C. […] The extract was then lyophilized, and protein concentration was determined with a BCA kit (Pierce, USA). […] The fold increase of acetylated histones was determined by the ratio of band intensities of treated and untreated cells or mice, normalized to loading control (total histone H3).
Cell lysates or acid extracted histones were solubilized in a concentrated (×4) loading buffer (62.5 mM Tris-HCl, pH 6.8, 1% SDS, 10% glycerol v/v, 1% dithiothreitol (DTT) and 0.1 mg/ml bromophenol blue). […] The membrane was exposed for 5 minutes to Chemiluminescence BioMax light film (Kodak, USA) and the intensity of the bands was measured with a VersaDoc instrument with a Quantityl program (Bio-Rad, USA). […]

[6] = system: U-251 cells; assay: Hoechst viability assay, U-251 glioma cells; type: cell-based, human; settings: Homo sapiens, 72 hours, Hoechst, read-out: IC50
Description: (§2) Cells (in quadruplicate) at the specified density were suspended in 200 μL medium supplemented with 10% FCS seeded in 96-well plates for 24 hours, then exposed to the drugs for 72 hours. The viability of the cells was determined by Hoechst fluorescent assay as described by Nudelman et al., 2005. Leukemic cell viability after 72 hours of treatment was determined by an MTT (3-(4,5-dimethylthiazol-2-yl)-2,5-diphenyltetrazolium bromide) assay as described by Levovich et al., 2007.
(§3) IC50 values were determined by linear regression of the percentage of survival following drug titration.

[7] = system: 22RV1 cells; assay: Hoechst viability assay, 22RV1 prostate carcinoma cells; type: cell-based, human; settings: Homo sapiens, 72 hours, Hoechst, read-out: IC50
Description: as §2, §3

[8] = system: U-251 cells; assay: Apoptosis/cell death by annexin V-FITC and propidium iodide FACS, U-251 cells; type: cell-based; settings: U-251 cells, 24 hours
Description: Cells were seeded in six-well plates (10^5 cells/well) for 24 hours and were then treated as specified, trypsinized, washed with PBS, double-stained with annexin V-FITC (fluorescein isothiocyanate) and propidium iodide, according to the manufacturer's instructions and subjected to flow cytometry analysis (FACScalibur cytometer, Becton Dickinson).

[9] = system: U-251 cells; assay: Mitochondrial membrane potential (JC-1 staining), U-251 cells; type: cell-based, human; settings: 60 μM, 24 hour treatment
[10] = system: phospho-H2AX (Ser139); assay: Phospho-H2AX Western blot, U-251 cells; type: cell-based, human; settings: 60 μM, 0.5, 2 or 24 hours, peak after 2 hours
Description: Cell lysates or acid extracted histones were solubilized in a concentrated (×4) loading buffer (62.5 mM Tris-HCl, pH 6.8, 1% SDS, 10% glycerol v/v, 1% dithiothreitol (DTT) and 0.1 mg/ml bromophenol blue). Proteins (10-40 μg) were run on SDS-PAGE, transferred to a nitrocellulose membrane (Schleicher & Schuell, Germany) and probed with the primary antibodies, followed by incubation with a horseradish peroxidase (HRP)-goat anti-rabbit IgG or HRP-rabbit anti-mouse IgG as secondary antibodies. HRP bound to the secondary antibodies was visualized by the enhanced chemiluminescence method using the Western Blotting Luminol reagent (Santa Cruz, Calif., USA). The membrane was exposed for 5 minutes to Chemiluminescence BioMax light film (Kodak, USA) and the intensity of the bands was measured with a VersaDoc instrument with a Quantityl program (Bio-Rad, USA). The fold increase of each specific protein was determined by the ratio of band intensities of treated and untreated cells, normalized to loading control (actin or total histone H3).

[11] = system: rat primary cardiomyocytes; assay: ROS production (DCF-DA) in rat primary cardiomyocytes; type: cell-based; settings: 2 μM
Description: Neonatal rat ventricular cardiomyocytes were isolated and cultured in collagen coated culture dishes as described by Shalitin et al., 1996. Growth medium contained DMEM:Ham's F12 (1:1), fetal calf serum (10%) and antibiotics. Treatment was administered to spontaneously beating cardiomyocytes 48 hours after plating.

[12] = system: 4T1 cells; assay: Hoechst viability assay, 4T1 breast carcinoma cells (Dox combination); type: cell-based, murine; settings: Mus musculus, 72 hours, 3 experiments
Description: as §2, §3
The combination index for drug interaction was calculated by Chou's Median Effect Analysis (MEA) [Chou, 2006]. The combination index (CI) was defined as CI=D1/(DM)1+D2/(DM)2, where D1 and D2 are the doses of drug 1 and drug 2, respectively, (DM)1 and (DM)2 are the doses of drug 1 and drug 2 and their mixture (in a specified ratio) required to produce a median effect, e.g., IC50. CI<1, =1 or >1 indicates synergism, additive effect, and antagonism respectively.

[13] = system: U-251 cells; assay: Reactive oxygen species by DCF-DA FACS, U-251 cells; type: cell-based, human; settings: 2 hour treatment
Description: ROS levels were determined by FACS analysis of U-251 cells treated with dichlorodihydrofluorescein diacetate (DCF-DA), which becomes fluorescent when oxidized.

[14] = target: T1, proteasome (Homo sapiens, UniProt P28074); assay: Proteasome activity assay, U-251 cells; type: cell-based; settings: 4 or 24 hours, alone or in combination
T1 construct: proteasome activity in U-251 cells treated for 4 or 24 hours; endogenous in cells; host or cells: U-251 cells (lysates of treated cells)
T1 sequence (P28074 60-263): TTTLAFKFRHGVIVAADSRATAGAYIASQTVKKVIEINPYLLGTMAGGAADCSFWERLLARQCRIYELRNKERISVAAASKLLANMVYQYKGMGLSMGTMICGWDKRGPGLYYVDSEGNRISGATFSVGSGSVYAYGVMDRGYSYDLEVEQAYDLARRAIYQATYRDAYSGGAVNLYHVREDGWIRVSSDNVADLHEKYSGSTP
Description: The peptidase or chymotrypsin-like activity of the proteasome was assayed using N-succinyl-Leu-Leu-Val-Tyr-7-amido-4-methylcoumarin. The lysates (100 μL) were incubated with 13 (M of the substrate in 100 mM Tris, pH 7.5, for 1 hour with shaking at room temperature. The reaction was stopped by addition of ice-cold ethanol, and the samples were centrifuged for 5 minutes at 2500 g. The supernatants were collected and the fluorescence was measured with excitation/emission filters of 390/460 nm using the FluoStar fluorimeter. The protein concentration was determined using a BCATM kit (Pierce) and the proteasome activity was derived from the ratio of fluorescence at 460 nm/(g of protein. The percentage of proteasome activity was calculated relative to untreated cells.

[15] = system: U-251 cells; assay: Cell cycle analysis (propidium iodide flow cytometry), U-251 cells; type: cell-based, human; settings: 24 hours
Description: Cells (4×10^5) were seeded in 35 mm culture dishes and after 24 hours were starved in medium without serum for an additional 24 hours, and then treated with the drug for an additional 24 hours. The cells were then trypsinized to a single cell suspension in PBS, washed, and resuspended in PBS at a concentration of 10^6 cells/mL. The cells were fixed with 70% ethanol for 30 minutes at 4° C., centrifuged and resuspended in 1 ml PBS containing 0.1% Tween 20 and 0.05% bovine serum albumin (BSA). RNase free of DNase was added, and the cell suspension (10^6 cells) was incubated at […] for 30 minutes. The cell suspension was then chilled on ice to a temperature in the range of 2 to 8° C. Propidium iodide (50 μg/mL) was added to the cell suspension, which was than kept in the dark. Red fluorescence (>630 nm) was analyzed on the flow cytometer.

CCCC(=O)Nc1nc2c(ncn2COCCOC(=O)CCC)c(=O)[nH]1 [Compound 7, N-butyryl-9-(2-butyryloxy)ethoxymethylguanine]
LD50 at 2 weeks [1]: > 750 mg/kg
Survival (%) ([2]; single per os dose 150 mg/kg): 100%
Survival (%) ([2]; single per os dose 200 mg/kg): 100%
Survival (%) ([2]; single per os dose 250 mg/kg): 100%
Survival (%) ([2]; single per os dose 500 mg/kg): 100%
Survival (%) ([2]; single per os dose 750 mg/kg): 100%
number of lung macro-lesions (anti-metastatic activity) [3]: significant anti-metastatic activity
lung weight ([4]; 25 mg/kg, p<0.05): reduction in lung weight
number of observed lung lesions ([4]; 25 mg/kg, p<0.05): reduction in the number of observed lung lesions
anti-cancer activity (number of metastases and lung weight) [4]: significant anti-cancer activity
levels of acetylated H4 in tumors [5]: significantly higher levels of acetylated H4

CCCCCCCC(=O)Nc1nc2c(ncn2COCCOC(=O)CCCCCCC)c(=O)[nH]1 [Compound 8, N-octanoyl-9-(2-octanoyloxy)ethoxymethylguanine]
anti-cancer activity (number of metastases and lung weight) [4]: little, if any anticancer activity

CCCC(CCC)C(=O)OCCOCn1cnc2c(=O)[nH]c(N)nc21 [Compound 12, 9-(2-valproyloxy)ethoxymethylguanine]
IC50 [6]: 251 ± 12 µM
IC50 [7]: 241 ± 12 µM
percentage of apoptotic cells [8]: increased the percentage of apoptotic cells in a dose dependent manner
mitochondrial membrane potential [9]: no apparent effect

CCCCCC(=O)Nc1nc2c(ncn2COCCOC(=O)CCCCC)c(=O)[nH]1 [Compound 20, N-hexanoyl-9-(2-hexanoyloxy)-ethoxymethylguanine]
anti-cancer activity (number of metastases and lung weight) [4]: little, if any anticancer activity

O=C(/C=C/c1ccccc1)Nc1nc2c(ncn2COCCOC(=O)/C=C/c2ccccc2)c(=O)[nH]1 [Compound 22, N-cinnamoyl-9-(2-cinnamoyloxy)-ethoxymethylguanine]
mitochondrial membrane potential [9]: no apparent effect
level of phosphorylated H2AX [10]: induced an increase in the level of phosphorylated H2AX

CCCC(CCC)C(=O)Nc1nc2c(ncn2COCCO)c(=O)[nH]1 [Compound 23, N-valproyl-9-(2-hydroxy)ethoxymethylguanine]
IC50 [6]: > 750 µM
IC50 [7]: 402 ± 22 µM
mitochondrial membrane potential [9]: no apparent effect

COc1cccc2c1C(=O)c1c(O)c3c(c(O)c1C2=O)C[C@@](O)(C(=O)CO)C[C@@H]3O[C@H]1C[C@H](N)[C@H](O)[C@H](C)O1 [doxorubicin, reference compound]
production of ROS [11]: increased dramatically the production of ROS
IC50 [12]: 0.0165 µM

CCCC(CCC)C(=O)O [valproic acid, reference compound]
level of oxidation in cells (ROS) [13]: little if any effect
inhibitory effect on proteasome activity [14]: only a marginal inhibitory effect
phase of cell-cycle arrest ([15]; 1 mM): G2-M phase
Percentage of cells in G0-G1 stage ([15]; 1000 μM): 20.3%
Percentage of cells in G2-M stage ([15]; 1000 μM): 47.5%
Percentage of cells in S stage ([15]; 1000 μM): 32.5%
